The values below come from patent US9346769B2, “Tetrazolones as inhibitors of fatty acid synthase” (Infinity Pharmaceuticals, Inc., priority 2010, dated 2016).

The target of this assay is T1, human FASN (Homo sapiens, UniProt P49327).
T1 construct: was purified from SKBR3 cells using procedures modified from those in Jayakumar et al; endogenous in cells; host or cells: SKBR3 human breast cancer cells (ATCC); Endogenous enzyme purified by ammonium sulfate precipitation and a mono Q column
Briefly: FASN NADPH Consumption Assay. The following applies: human FASN purified from SKBR3 cells; starred symbols. The assay is classed as biochemical. In short, it runs like this: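 Native human FASN purified from SKBR3 cells (60 nM final) preincubated 30 min at 37 °C with compound (2.4 nM–40 μM, 4% DMSO) in pH 7.0 phosphate buffer with 5 mM DTT. Reaction started with 0.2 mM NADPH, 50 μM butyryl-CoA, 0.5 mM malonyl-CoA; NADPH consumption followed kinetically by fluorescence (ex 340/em 460 nm); IC50 from logistic fit.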

T1 sequence (P49327 whole entry): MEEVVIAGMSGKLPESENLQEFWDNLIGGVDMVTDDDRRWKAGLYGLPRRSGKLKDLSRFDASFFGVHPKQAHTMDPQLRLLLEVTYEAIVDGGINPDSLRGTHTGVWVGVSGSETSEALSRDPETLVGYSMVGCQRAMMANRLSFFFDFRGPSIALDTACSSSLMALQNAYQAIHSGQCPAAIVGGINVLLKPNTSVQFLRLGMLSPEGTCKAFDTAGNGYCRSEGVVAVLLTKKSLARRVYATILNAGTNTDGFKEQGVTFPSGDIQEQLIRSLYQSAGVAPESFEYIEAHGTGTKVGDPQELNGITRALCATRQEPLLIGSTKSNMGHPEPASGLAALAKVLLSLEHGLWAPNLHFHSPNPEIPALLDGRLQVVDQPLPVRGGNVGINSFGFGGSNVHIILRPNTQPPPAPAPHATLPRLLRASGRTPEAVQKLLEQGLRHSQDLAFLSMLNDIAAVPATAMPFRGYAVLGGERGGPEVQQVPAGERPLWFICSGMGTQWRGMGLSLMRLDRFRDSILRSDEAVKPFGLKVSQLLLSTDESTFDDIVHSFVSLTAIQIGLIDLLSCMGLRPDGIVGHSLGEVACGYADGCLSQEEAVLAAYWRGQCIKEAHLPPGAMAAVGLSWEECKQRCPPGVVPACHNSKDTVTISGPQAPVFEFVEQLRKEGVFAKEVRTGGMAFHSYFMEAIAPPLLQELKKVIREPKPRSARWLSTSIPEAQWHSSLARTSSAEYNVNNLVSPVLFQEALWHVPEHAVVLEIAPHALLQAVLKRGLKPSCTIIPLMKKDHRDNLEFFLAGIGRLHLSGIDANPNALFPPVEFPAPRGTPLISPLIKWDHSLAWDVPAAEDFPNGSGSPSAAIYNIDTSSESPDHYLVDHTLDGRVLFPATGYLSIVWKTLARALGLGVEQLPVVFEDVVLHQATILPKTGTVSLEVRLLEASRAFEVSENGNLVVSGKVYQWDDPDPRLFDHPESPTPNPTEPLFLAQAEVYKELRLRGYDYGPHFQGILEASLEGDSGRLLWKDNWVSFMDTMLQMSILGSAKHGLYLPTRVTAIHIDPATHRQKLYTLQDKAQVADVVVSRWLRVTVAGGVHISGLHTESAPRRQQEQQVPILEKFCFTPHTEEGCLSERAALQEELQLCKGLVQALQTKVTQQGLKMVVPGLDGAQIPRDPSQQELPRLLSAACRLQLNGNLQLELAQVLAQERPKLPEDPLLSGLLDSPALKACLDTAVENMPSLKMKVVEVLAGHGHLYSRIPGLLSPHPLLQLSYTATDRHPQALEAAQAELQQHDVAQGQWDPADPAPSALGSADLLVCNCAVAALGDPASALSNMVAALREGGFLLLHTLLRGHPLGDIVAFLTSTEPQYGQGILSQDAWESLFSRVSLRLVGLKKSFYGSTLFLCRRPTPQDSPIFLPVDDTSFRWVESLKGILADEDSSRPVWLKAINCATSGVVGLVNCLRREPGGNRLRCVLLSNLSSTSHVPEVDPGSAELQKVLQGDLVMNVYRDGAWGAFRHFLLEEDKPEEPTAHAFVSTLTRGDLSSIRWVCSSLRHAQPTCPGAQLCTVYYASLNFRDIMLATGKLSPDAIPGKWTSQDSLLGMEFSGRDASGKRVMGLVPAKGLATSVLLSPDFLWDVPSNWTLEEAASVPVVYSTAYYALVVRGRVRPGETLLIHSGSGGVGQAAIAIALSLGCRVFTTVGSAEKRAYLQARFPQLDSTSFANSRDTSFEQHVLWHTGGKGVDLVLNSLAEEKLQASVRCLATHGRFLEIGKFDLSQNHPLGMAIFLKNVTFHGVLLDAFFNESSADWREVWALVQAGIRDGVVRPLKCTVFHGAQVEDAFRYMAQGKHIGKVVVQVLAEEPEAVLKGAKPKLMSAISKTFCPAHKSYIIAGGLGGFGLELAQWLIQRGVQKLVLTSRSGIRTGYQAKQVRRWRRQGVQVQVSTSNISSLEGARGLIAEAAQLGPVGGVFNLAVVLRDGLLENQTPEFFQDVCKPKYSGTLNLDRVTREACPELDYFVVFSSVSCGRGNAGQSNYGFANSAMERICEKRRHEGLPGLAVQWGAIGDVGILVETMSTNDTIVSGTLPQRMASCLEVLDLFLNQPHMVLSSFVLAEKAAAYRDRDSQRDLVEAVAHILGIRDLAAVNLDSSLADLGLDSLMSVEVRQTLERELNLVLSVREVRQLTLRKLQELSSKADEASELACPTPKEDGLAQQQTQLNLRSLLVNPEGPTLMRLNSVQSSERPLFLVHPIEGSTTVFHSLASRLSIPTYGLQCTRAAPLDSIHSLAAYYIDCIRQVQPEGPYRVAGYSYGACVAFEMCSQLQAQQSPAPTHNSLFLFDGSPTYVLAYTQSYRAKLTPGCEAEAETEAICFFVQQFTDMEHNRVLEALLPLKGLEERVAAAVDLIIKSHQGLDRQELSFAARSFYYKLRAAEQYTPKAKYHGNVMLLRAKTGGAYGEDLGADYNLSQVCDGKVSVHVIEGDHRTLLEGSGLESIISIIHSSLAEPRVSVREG

As for `C=CCN(C(=O)n1nnn(-c2ccccc2Oc2ccccc2)c1=O)C1CCN(C(=O)OC(C)(C)C)CC1`, the IC50 – broadly, the point on the concentration scale where inhibition reaches its midpoint – fell in the range of 1 to 10 µM.

Compound `CCN(C(=O)n1nnn(-c2c(Cl)cccc2Cl)c1=O)C1CCN(C(=O)Cc2ccccc2)CC1` came in with an IC50 of 0.25 to 1 µM.

Consider `CCN(C(=O)n1nnn(-c2c(Cl)cccc2Cl)c1=O)C1CCN(C(=O)OC(C)(C)C)CC1`, for which the IC50 was 1 to 10 µM.

Consider `CCN(C(=O)n1nnn(-c2c(Cl)cccc2Cl)c1=O)C1CCN(C(=O)CCC(=O)O)CC1`, for which the IC50 lay within 1 to 10 µM.

`CCN(C(=O)n1nnn(-c2c(Cl)cccc2Cl)c1=O)C1CCN(C)CC1` came in with an IC50 of more than 10 µM.

On to `CCN(C(=O)n1nnn(-c2c(Cl)cccc2Cl)c1=O)C1CCN(S(C)(=O)=O)CC1`, for which the IC50 was in the range of 1 to 10 µM.

In the case of `CCN(C(=O)n1nnn(-c2c(Cl)cccc2Cl)c1=O)C1CCN(C(C)=O)CC1`, the IC50 lay within 1 to 10 µM.

`CN1C2CCC1CC(N(CCc1ccccc1)C(=O)n1nnn(-c3c(Cl)cccc3Cl)c1=O)C2` (stereo not drawn) returned an IC50 of more than 10 µM.

`CCNC(=O)N1CCCC(N(CC)C(=O)n2nnn(-c3c(Cl)cccc3Cl)c2=O)C1` (stereo not drawn) had an IC50 of 1 to 10 µM.

As for `CCN(C(=O)n1nnn(-c2c(Cl)cccc2Cl)c1=O)C1CCCN(C(C)=O)C1` (stereo not drawn), the IC50 was 1 to 10 µM.

In the case of `CCN(C(=O)n1nnn(-c2c(Cl)cccc2Cl)c1=O)C1CCCN(C(=O)CCC(=O)O)C1` (stereo not drawn), the IC50 lay within 1 to 10 µM.

Compound `CCN(C(=O)n1nnn(-c2c(Cl)cccc2Cl)c1=O)C1CCCN(C(=O)OC(C)(C)C)C1` (stereo not drawn) gave an IC50 of 1 to 10 µM.

As to `CCOC(=O)N1CCCC(N(CC)C(=O)n2nnn(-c3c(Cl)cccc3Cl)c2=O)C1` (stereo not drawn), the IC50 is 1 to 10 µM.

`CCN(C(=O)n1nnn(-c2c(Cl)cccc2Cl)c1=O)C1CCCN(C(=O)Cc2ccccc2)C1` (stereo not drawn) yielded an IC50 of 1 to 10 µM.

Take `CCN(C(=O)n1nnn(-c2c(Cl)cccc2Cl)c1=O)C1CCCN(S(C)(=O)=O)C1` (stereo not drawn): the IC50 is 1 to 10 µM.

With `CCN(C(=O)n1nnn(-c2c(Cl)cccc2Cl)c1=O)C1CCOC(C)(C)C1` (stereo not drawn), the IC50 was in the range of 1 to 10 µM.

As to `O=C(NC1CCCCC1)n1nnn(-c2ccccc2)c1=O`, the IC50 was more than 10 µM.

Take `CCN(C(=O)n1nnn(-c2ccccc2)c1=O)C1CCCCC1`: the IC50 is more than 10 µM.

`CCN(C(=O)n1nnn(-c2ccccc2SC)c1=O)C1CCCCC1` displayed an IC50 of 1 to 10 µM.

In turn, `CCN(C(=O)n1nnn(-c2ccccc2Oc2ccccc2)c1=O)C1CCCCC1` gave an IC50 of 1 to 10 µM.

Take `CCc1ccccc1-n1nnn(C(=O)N(CC)C2CCCCC2)c1=O`: the IC50 fell in the range of 1 to 10 µM.

The compound `CCN(C(=O)n1nnn(-c2ccccc2I)c1=O)C1CCCCC1` registered an IC50 of 1 to 10 µM.

As for `CCC(C)c1ccccc1-n1nnn(C(=O)N(CC)C2CCCCC2)c1=O` (stereo not drawn), the IC50 is 1 to 10 µM.

For `CCN(C(=O)n1nnn(-c2ccccc2F)c1=O)C1CCCCC1`, the IC50 lay within 1 to 10 µM.

As to `CCN(C(=O)n1nnn(-c2ccccc2C(C)(C)C)c1=O)C1CCCCC1`, the IC50 was more than 10 µM.

Compound `CCN(C(=O)n1nnn(-c2ccccc2Cl)c1=O)C1CCCCC1` showed an IC50 of 1 to 10 µM.

In turn, `CCN(C(=O)n1nnn(-c2ccccc2Br)c1=O)C1CCCCC1` came in with an IC50 of 1 to 10 µM.

The compound `CC(C)N(C(=O)n1nnn(-c2ccccc2Cl)c1=O)C1CCCCC1` yielded an IC50 of more than 10 µM.

With `CCN(C(=O)n1nnn(-c2ccccc2OC(F)(F)F)c1=O)C1CCCCC1`, the IC50 was 1 to 10 µM.

As to `CCN(C(=O)n1nnn(-c2ccccc2C#N)c1=O)C1CCCCC1`, the IC50 is 1 to 10 µM.

For `CCN(C(=O)n1nnn(-c2ccccc2OC)c1=O)C1CCCCC1`, the IC50 was 1 to 10 µM.

As for `CCN(C(=O)n1nnn(-c2c(Cl)cccc2Cl)c1=O)C1CCCC(C(=O)OCc2ccccc2)C1` (stereo not drawn), the IC50 was in the range of 1 to 10 µM.

Consider `CCN(C(=O)n1nnn(-c2c(Cl)cccc2Cl)c1=O)C1CCCC(C(=O)N2CCN(C)CC2)C1` (stereo not drawn), for which the IC50 was in the range of 1 to 10 µM.

For `CCN(C(=O)n1nnn(-c2c(Cl)cccc2Cl)c1=O)C1CCC(NC(=O)OC(C)(C)C)CC1` (stereo not drawn), the IC50 is more than 10 µM.

Take `O=C(NCCCN(C(=O)n1nnn(-c2c(Cl)cccc2Cl)c1=O)C1CCCCC1)c1cccnc1`: the IC50 lay in the range of 1 to 10 µM.

Turning to `CCN(C(=O)n1nnn(-c2c(Cl)cccc2Cl)c1=O)C1CCC(C(=O)O)CC1` (stereo not drawn), the IC50 lay in the range of 1 to 10 µM.

Turning to `CCN(C(=O)n1nnn(-c2c(Cl)cccc2Cl)c1=O)C1CCCC(C(=O)NC)C1` (stereo not drawn), the IC50 was in the range of 1 to 10 µM.

The compound `CCN(C(=O)n1nnn(-c2c(Cl)cccc2Cl)c1=O)C1CCC(C(=O)N2CCOCC2)CC1` (stereo not drawn) showed an IC50 of more than 10 µM.

As for `CC(C)(C)OC(=O)NCCCN(C(=O)n1nnn(-c2c(Cl)cccc2Cl)c1=O)C1CCCCC1`, the IC50 is 1 to 10 µM.

As to `CCN(C(=O)n1nnn(-c2c(Cl)cccc2Cl)c1=O)C1CCCC(C(=O)NCC(N)=O)C1` (stereo not drawn), the IC50 is 1 to 10 µM.

`CC(=O)NCCCN(C(=O)n1nnn(-c2c(Cl)cccc2Cl)c1=O)C1CCCCC1` displayed an IC50 of 1 to 10 µM.

For the compound `CC(C)C[C@@H](NC=O)C(=O)NCCCN(C(=O)n1nnn(-c2c(Cl)cccc2Cl)c1=O)C1CCCCC1`, the IC50 was more than 10 µM.

As for `CCN(C(=O)n1nnn(-c2c(Cl)cccc2Cl)c1=O)C1CCCC(C(=O)O)C1` (stereo not drawn), the IC50 was 1 to 10 µM.

`CNC(=O)CN(C(=O)n1nnn(-c2c(Cl)cccc2Cl)c1=O)C1CCCCC1` gave an IC50 of 1 to 10 µM.

Consider `CC(=O)NCCN(C(=O)n1nnn(-c2c(Cl)cccc2Cl)c1=O)C1CCCCC1`, for which the IC50 was more than 10 µM.

Consider `CCN(C(=O)n1nnn(-c2c(Cl)cccc2Cl)c1=O)[C@@H]1CCC[C@@H](C(=O)N2CCOCC2)C1`, for which the IC50 was in the range of 1 to 10 µM.

The compound `CCN(C(=O)n1nnn(-c2c(Cl)cccc2Cl)c1=O)C1CCC(C(=O)NC(C(N)=O)c2ccccc2)CC1` (stereo not drawn) came in with an IC50 of 1 to 10 µM.

Consider `CCN(C(=O)n1nnn(-c2c(Cl)cccc2Cl)c1=O)C1CCC(C(=O)NC)CC1` (stereo not drawn), for which the IC50 was in the range of 1 to 10 µM.

Take `O=CNCC(=O)NCCCN(C(=O)n1nnn(-c2c(Cl)cccc2Cl)c1=O)C1CCCCC1`: the IC50 lay in the range of 1 to 10 µM.

Compound `O=C(N(Cc1ccco1)C1CCCCC1)n1nnn(-c2c(Cl)cccc2Cl)c1=O` yielded an IC50 of more than 10 µM.

`Cc1nonc1NC(=O)CN(C(=O)n1nnn(-c2c(Cl)cccc2Cl)c1=O)C1CCCCC1` yielded an IC50 of more than 10 µM.

`CCN(C(=O)n1nnn(-c2c(Cl)cccc2Cl)c1=O)C1CCC(C(=O)N2CCN(C)CC2)CC1` (stereo not drawn): the IC50 is more than 10 µM.

The compound `CCNC(=O)NCCCN(C(=O)n1nnn(-c2c(Cl)cccc2Cl)c1=O)C1CCCCC1` came in with an IC50 of 1 to 10 µM.

The compound `CCN(C(=O)n1nnn(-c2c(Cl)cccc2Cl)c1=O)C1CCC(N(C)C)CC1` (stereo not drawn) came in with an IC50 of more than 10 µM.

Compound `CCN(C(=O)n1nnn(-c2c(C)cccc2C)c1=O)C1CCCCC1` gave an IC50 of more than 10 µM.

Consider `CCN(C(=O)n1nnn(-c2c(Cl)cccc2C(F)(F)F)c1=O)C1CCCCC1`, for which the IC50 is more than 10 µM.

Regarding `CCN(C(=O)n1nnn(-c2c(C)cccc2Cl)c1=O)C1CCCCC1`, the IC50 lay in the range of 1 to 10 µM.

The compound `COc1cccc(F)c1-n1nnn(C(=O)N(C2CCCCC2)C2CCCCC2)c1=O` returned an IC50 of 1 to 10 µM.

On to `CCN(C(=O)n1nnn(-c2c(C)cccc2C(C)(C)C)c1=O)C1CCCCC1`, for which the IC50 was more than 10 µM.

Take `CCCCc1ccc(-n2nnn(C(=O)N(CC)C3CCCCC3)c2=O)c(C)c1`: the IC50 is more than 10 µM.

In the case of `CCN(C(=O)n1nnn(-c2ccc(Cl)cc2Cl)c1=O)C1CCCCC1`, the IC50 lay within 1 to 10 µM.

`CCN(C(=O)n1nnn(-c2ccc([N+](=O)[O-])cc2Cl)c1=O)C1CCCCC1`: the IC50 was more than 10 µM.

Compound `CCN(C(=O)n1nnn(-c2ccc(F)cc2F)c1=O)C1CCCCC1` showed an IC50 of 1 to 10 µM.

The compound `CCN(C(=O)n1nnn(-c2ccc(C(F)(F)F)cc2Cl)c1=O)C1CCCCC1` showed a concentration for half-maximal inhibition (IC50) of more than 10 µM.

`CCN(C(=O)n1nnn(-c2ccc(Br)cc2Br)c1=O)C1CCCCC1` returned an IC50 of 1 to 10 µM.

For the compound `CCN(C(=O)n1nnn(-c2cc(Cl)ccc2Cl)c1=O)C1CCCCC1`, the IC50 was 1 to 10 µM.

Take `CCN(C(=O)n1nnn(-c2cc(F)ccc2F)c1=O)C1CCCCC1`: the IC50 lay within 1 to 10 µM.

On to `CCN(C(=O)n1nnn(-c2cccc(Cl)c2Cl)c1=O)C1CCCCC1`, for which the IC50 was 1 to 10 µM.

Consider `CCN(C(=O)n1nnn(-c2cccc3nsnc23)c1=O)C1CCCCC1`, for which the IC50 lay in the range of 1 to 10 µM.

On to `CCN(C(=O)n1nnn(-c2c(C)cc(C)cc2C)c1=O)C1CCCCC1`, for which the IC50 was more than 10 µM.

In the case of `CCN(C(=O)n1nnn(-c2c(Cl)cc(Cl)cc2Cl)c1=O)C1CCCCC1`, the IC50 lay within 1 to 10 µM.

`CCN(C(=O)n1nnn(-c2ccc(F)c(F)c2F)c1=O)C1CCCCC1` yielded an IC50 of more than 10 µM.

Compound `CN(C)N(C(=O)n1nnn(-c2ccccc2F)c1=O)C1=CCCCC1` registered a concentration for half-maximal inhibition (IC50) of 0.25 to 1 µM.

`CN(C)N(C(=O)n1nnn(-c2ccccc2Br)c1=O)C1=CCCCC1` gave an IC50 of 0.25 to 1 µM.

`CN(C)N(C(=O)n1nnn(-c2ccccc2Cl)c1=O)C1=CCCCC1` had an IC50 of 1 to 10 µM.

In turn, `CN(C)N(C(=O)n1nnn(-c2cccc(Cl)c2)c1=O)C1=CCCCC1` returned an IC50 of 1 to 10 µM.

Consider `CCNC(=O)n1nnn(-c2ccccc2)c1=O`, for which the IC50 is more than 10 µM.

Take `C/C=C/C/C=C/CCCN(CCC)C(=O)n1nnn(-c2ccccc2Cl)c1=O`: the IC50 lay in the range of 0.25 to 1 µM.

For `CCCCCCCCCCCCN(C)C(=O)n1nnn(-c2ccccc2Cl)c1=O`, the IC50 was in the range of 0.25 to 1 µM.

In turn, `CCN(CC)C(=O)n1nnn(-c2ccccc2Cl)c1=O` showed an IC50 of 1 to 10 µM.

`C/C=C/C/C=C/CCCN(C)C(=O)n1nnn(-c2ccccc2Cl)c1=O` showed an IC50 of 1 to 10 µM.

`CCN(C)C(=O)n1nnn(-c2ccccc2Cl)c1=O`: the IC50 was more than 10 µM.

On to `CCCN(C)C(=O)n1nnn(-c2ccccc2Cl)c1=O`, for which the IC50 is more than 10 µM.

In turn, `CCCCCCN(C)C(=O)n1nnn(-c2ccccc2Cl)c1=O` returned an IC50 of 1 to 10 µM.

`CC(C)N(C(=O)n1nnn(-c2ccccc2Cl)c1=O)C(C)C` displayed an IC50 of more than 10 µM.

`CCN(C(=O)n1nnn(-c2ccccc2Cl)c1=O)C(C)(C)C` gave an IC50 of more than 10 µM.

Regarding `CCN(CCOC(=O)[C@H](CC(C)C)NC=O)C(=O)n1nnn(-c2c(Cl)cccc2Cl)c1=O`, the IC50 fell in the range of 1 to 10 µM.
